Reference: patent US20220313698A1, “MODULATORS OF CYSTIC FIBROSIS TRANSMEMBRANE CONDUCTANCE REGULATOR” (Vertex Pharmaceuticals Incorporated, priority 2019, published 2022)
pEC50: −log10 of the molar value.

Biological target: CFTR-mediated chloride transport (Homo sapiens, UniProt P13569)
Experiment: Corrector Assay A - membrane potential dye assay (enteroid cells)
Conditions: for Corrector Assay A % activity: % of chloride transport of triple combination control (1 μM (14S)-dispiro macrocycle + 3 μM tezacaftor + 300 nM ivacaftor); for pEC50: read-out: Corrector Assay A EC50, human intestinal enteroid cells, 18-24 h incubation, acute 10 μM forskolin + 300 nM ivacaftor

Row | SMILES | Corrector Assay A % activity | pEC50
1 | CC(C)(C)c1ccc2c(n1)N1C[C@@H](CCC(c3ccc(N)cn3)Nc3cccc(n3)S(=O)(=O)NC2=O)CC1(C)C (stereo partly shown) [Compound 63] | +++ (+++ is >60%) | > 6.00
2 | CC(C)(C)c1ccc2c(n1)N1C[C@@H](CCC(c3ccc(N)cn3)Nc3cccc(n3)S(=O)(=O)NC2=O)CC1(C)C (stereo partly drawn) [Compound 64, (14S)-17-(5-aminopyridin-2-yl)-8-tert-butyl-12,12-dimethyl-2λ^6-thia-3,9,11,18,23-pentaazatetracyclo[17.3.1.111,14.05,10]tetracosa-1(23),5(10),6,8,19,21-hexaene-2,2,4-trione] | ++ (++ is 30-60%) | > 6.00
3 | CC(C)(C)c1ccc2c(n1)N1C[C@@H](CC[C@H](c3cccc(-c4cn[nH]c4)n3)Nc3cccc(n3)S(=O)(=O)NC2=O)CC1(C)C [Compound 67] | +++ (+++ is >60%) | > 6.00
4 | CC(C)(C)c1ccc2c(n1)N1C[C@@H](CC[C@H](c3cccc(C(N)=O)n3)Nc3cccc(n3)S(=O)(=O)NC2=O)CC1(C)C [Compound 70, 6-[(14S,17R)-8-tert-butyl-12,12-dimethyl-2,2,4-trioxo-2λ^6-thia-3,9,11,18,23-pentaazatetracyclo[17.3.1.111,14.05,10]tetracosa-1(22),5,7,9,19(23),20-hexaen-17-yl]pyridine-2-carboxamide] | ++ (++ is 30-60%) | > 6.00
5 | CC(=O)NCc1ccc(C2CC[C@@H]3CN(c4nc(C(C)(C)C)ccc4C(=O)NS(=O)(=O)c4cccc(n4)N2)C(C)(C)C3)nc1 (stereo partly shown) [Compound 71] | ++ (++ is 30-60%) | > 6.00
6 | CC(=O)NCc1ccc(C2CC[C@@H]3CN(c4nc(C(C)(C)C)ccc4C(=O)NS(=O)(=O)c4cccc(n4)N2)C(C)(C)C3)nc1 (stereo partly drawn) [Compound 72, N-({6-[(14S)-8-tert-Butyl-12,12-dimethyl-2,2,4-trioxo-2λ^6-thia-3,9,11,18,23-pentaazatetracyclo[17.3.1.111,14.05,10]tetracosa-1(23),5(10),6,8,19,21-hexaen-17-yl]pyridin-3-yl}methyl)acetamide] | ++ (++ is 30-60%) | > 6.00
7 | CC(C)(C)c1ccc2c(n1)N1C[C@@H](CC[C@H](c3cccc(-c4ccn[nH]4)n3)Nc3cccc(n3)S(=O)(=O)NC2=O)CC1(C)C [Compound 77] | ++ (++ is 30-60%) | > 6.00
8 | CC(C)(C)c1ccc2c(n1)N1C[C@@H](CCC(c3ccc(CO)cn3)Nc3cccc(n3)S(=O)(=O)NC2=O)CC1(C)C (stereo partly shown) [Compound 78] | +++ (+++ is >60%) | > 6.00
9 | CC(C)(C)c1ccc2c(n1)N1C[C@@H](CCC(c3ccc(CO)cn3)Nc3cccc(n3)S(=O)(=O)NC2=O)CC1(C)C (stereo partly drawn) [Compound 79, (14S)-8-tert-butyl-17-[5-(hydroxymethyl)pyridin-2-yl]-12,12-dimethyl-2λ^6-thia-3,9,11,18,23-pentaazatetracyclo[17.3.1.111,14.05,10]tetracosa-1(23),5(10),6,8,19,21-hexaene-2,2,4-trione] | +++ (+++ is >60%) | > 6.00
10 | COC(=O)NCc1ccc(C2CC[C@@H]3CN(c4nc(C(C)(C)C)ccc4C(=O)NS(=O)(=O)c4cccc(n4)N2)C(C)(C)C3)nc1 (stereo partly shown) [Compound 88] | +++ (+++ is >60%) | > 6.00
11 | COC(=O)NCc1ccc(C2CC[C@@H]3CN(c4nc(C(C)(C)C)ccc4C(=O)NS(=O)(=O)c4cccc(n4)N2)C(C)(C)C3)nc1 (stereo partly drawn) [Compound 89, Methyl N-({6-[(14S)-8-tert-butyl-12,12-dimethyl-2,2,4-trioxo-2λ^6-thia-3,9,11,18,23-pentaazatetracyclo[17.3.1.111,14.05,10]tetracosa-1(23),5(10),6,8,19,21-hexaen-17-yl]pyridin-3-yl}methyl)carbamate] | ++ (++ is 30-60%) | > 6.00
12 | COC(=O)CCc1ccc(C2CC[C@@H]3CN(c4nc(C(C)(C)C)ccc4C(=O)NS(=O)(=O)c4cccc(n4)N2)C(C)(C)C3)nc1 (stereo partly shown) [Compound 90] | ++ (++ is 30-60%) | > 6.00
13 | COC(=O)CCc1ccc(C2CC[C@@H]3CN(c4nc(C(C)(C)C)ccc4C(=O)NS(=O)(=O)c4cccc(n4)N2)C(C)(C)C3)nc1 (stereo partly drawn) [Compound 91, methyl 3-{6-[(14S)-8-tert-butyl-12,12-dimethyl-2,2,4-trioxo-2λ^6-thia-3,9,11,18,23-pentaazatetracyclo[17.3.1.111,14.05,10]tetracosa-1(23),5(10),6,8,19,21-hexaen-17-yl]pyridin-3-yl}propanoate] | ++ (++ is 30-60%) | < 5.52
14 | COC(=O)N1CCC(c2ccnc(C3CC[C@@H]4CN(c5nc(C(C)(C)C)ccc5C(=O)NS(=O)(=O)c5cccc(n5)N3)C(C)(C)C4)c2)CC1 (stereo partly drawn) [Compound 96, methyl 4-{2-[(14S)-8-tert-butyl-12,12-dimethyl-2,2,4-trioxo-2λ^6-thia-3,9,11,18,23-pentaazatetracyclo[17.3.1.111,14.05,10]tetracosa-1(23),5(10),6,8,19,21-hexaen-17-yl]pyridin-4-yl}piperidine-1-carboxylate] | +++ (+++ is >60%) | > 6.00
15 | CC(C)(C)c1ccc2c(n1)N1C[C@@H](CCC(c3ccc(CCC(=O)O)cn3)Nc3cccc(n3)S(=O)(=O)NC2=O)CC1(C)C (stereo partly shown) [Compound 97] | ++ (++ is 30-60%) | 5.52 to 6.00
16 | CC(C)(C)c1ccc2c(n1)N1C[C@@H](CCC(c3ccc(CCC(=O)O)cn3)Nc3cccc(n3)S(=O)(=O)NC2=O)CC1(C)C (stereo partly drawn) [Compound 98, 3-{6-[(14S)-8-tert-Butyl-12,12-dimethyl-2,2,4-trioxo-2λ^6-thia-3,9,11,18,23-pentaazatetracyclo[17.3.1.111,14.05,10]tetracosa-1(23),5(10),6,8,19,21-hexaen-17-yl]pyridin-3-yl}propanoic acid] | + (+ is <30%) | 5.52 to 6.00
17 | CN(C)Cc1cccc([C@H]2CC[C@@H]3CN(c4nc(C(C)(C)C)ccc4C(=O)NS(=O)(=O)c4cccc(n4)N2)C(C)(C)C3)n1 [Compound 99] | ++ (++ is 30-60%) | > 6.00
18 | CC(=O)NCc1cccc([C@H]2CC[C@@H]3CN(c4nc(C(C)(C)C)ccc4C(=O)NS(=O)(=O)c4cccc(n4)N2)C(C)(C)C3)n1 [Compound 100, N-({6-[(14S,17R)-8-tert-Butyl-12,12-dimethyl-2,2,4-trioxo-2λ^6-thia-3,9,11,18,23-pentaazatetracyclo[17.3.1.111,14.05,10]tetracosa-1(22),5,7,9,19(23),20-hexaen-17-yl]pyridin-2-yl}methyl)acetamide] | +++ (+++ is >60%) | > 6.00
19 | COC(=O)NCc1cccc([C@H]2CC[C@@H]3CN(c4nc(C(C)(C)C)ccc4C(=O)NS(=O)(=O)c4cccc(n4)N2)C(C)(C)C3)n1 [Compound 101, Methyl N-({6-[(14S,17R)-8-tert-butyl-12,12-dimethyl-2,2,4-trioxo-2λ^6-thia-3,9,11,18,23-pentaazatetracyclo[17.3.1.111,14.05,10]tetracosa-1(22),5,7,9,19(23),20-hexaen-17-yl]pyridin-2-yl}methyl)carbamate] | ++ (++ is 30-60%) | > 6.00
20 | CN(C)Cc1ccc(C2CC[C@@H]3CN(c4nc(C(C)(C)C)ccc4C(=O)NS(=O)(=O)c4cccc(n4)N2)C(C)(C)C3)nc1 (stereo partly shown) [Compound 102] | +++ (+++ is >60%) | > 6.00
